Assay results published in the Deep4Chem optical property database.
“And” between values parts separate entries of the source, which are not always exact repeats. Equal entries are not always repeated.

Experiment: solvent given as SMILES

Compound: Nc1cc2ccc3cccc4ccc(c1)c2c34
- absorption maximum (in CC#N): 338 nm
- absorption maximum (in CCCCOCCCC): 338 nm
- absorption maximum (in CO): 336 nm

Compound: O=[N+]([O-])c1ccc(/C=C/c2cn(S(=O)(=O)c3ccccc3)c3ccccc23)cc1
- absorption maximum (in CC#N): 369 nm
- absorption maximum (in CCCCCCC): 357 nm
- absorption maximum (in CO): 367 nm
- absorption maximum (in O): 378 nm

Compound: COc1ccc(-c2ccc(-c3c4c(nc5ccccc35)-c3cc5c(cc3CC4)-c3nc4ccccc4c(-c4ccc(-c6ccc(OC)cc6)cc4)c3CC5)cc2)cc1
- absorption maximum (in ClC(Cl)Cl): 376 nm

Compound: N#Cc1c(-n2c3ccccc3c3ccccc32)cc(N2c3ccccc3C(c3ccccc3)(c3ccccc3)c3ccccc32)cc1-n1c2ccccc2c2ccccc21
- absorption maximum (in Cc1ccccc1): 368 nm

Compound: CCCCN1C(=O)c2ccc3c4ccc5c6c(ccc(c7ccc(c2c37)C1=O)c64)C(=O)N(CCCC)C5=O
- absorption maximum (in ClC(Cl)Cl): 526 nm

Compound: C#CCNC1=C2C=CC=[N+]2[B-](F)(F)n2cccc21
- absorption maximum (in C1CCCCC1): 422.5 nm and 426 nm
- absorption maximum (in CC(C)=O): 406 nm
- absorption maximum (in CCCCO): 406 nm
- absorption maximum (in CCCO): 408 nm
- absorption maximum (in CCO): 406.5 nm and 406 nm
- absorption maximum (in CCOC(C)=O): 408.5 nm
- absorption maximum (in CN(C)C=O): 404 nm
- absorption maximum (in CO): 405 nm
- absorption maximum (in CS(C)=O): 404 nm
- absorption maximum (in Cc1ccccc1): 421 nm
- absorption maximum (in ClC(Cl)Cl): 418 nm
- absorption maximum (in OCC(F)(F)F): 404 nm
- absorption maximum (in c1ccccc1): 422 nm

Compound: CCOC(=O)/C(C#N)=C\c1ccc2c(c1)c1ccccc1n2-c1ccc(C)cc1
- absorption maximum (in C1CCOC1): 390 nm
- absorption maximum (in CC#N): 389 nm
- absorption maximum (in CC(C)=O): 388 nm
- absorption maximum (in CCOC(C)=O): 400 nm
- absorption maximum (in CO): 391 nm
- absorption maximum (in CS(C)=O): 397 nm
- absorption maximum (in Cc1ccccc1): 396 nm
- absorption maximum (in ClC(Cl)Cl): 389 nm

Compound: CCOC(=O)c1c2c3c(ccc(Cl)c3c3cc4ccccc4cc13)N(C)C2=O
- absorption maximum (in CC#N): 408 nm

Compound: CC(C)(C)c1ccc(-c2cc3c4c(c2)CCc2cc(-c5ccc(C(C)(C)C)cc5)cc(c2-4)CC3)cc1
- absorption maximum (in ClC(Cl)Cl): 329.71 nm

Compound: CN(C)c1ccc2c(-c3cc(C(=O)[O-])ccc3C(=O)[O-])c3ccc(=[N+](C)C)cc-3oc2c1
- absorption maximum (in CCO): 538 nm
- absorption maximum (in O): 549 nm

Compound: CN(C)c1ccc(C#Cc2ccc3ccc4c(C#Cc5ccc(N(C)C)cc5)ccc5ccc2c3c54)cc1
- absorption maximum (in C1COCCO1): 430 nm
- absorption maximum (in CC(C)=O): 447 nm
- absorption maximum (in CCCCCC): 439 nm
- absorption maximum (in CCCCCCO): 430 nm
- absorption maximum (in CCO): 431 nm
- absorption maximum (in CCOC(C)=O): 431 nm
- absorption maximum (in CO): 436 nm
- absorption maximum (in Cc1ccccc1): 433 nm
- absorption maximum (in ClCCl): 439 nm

Compound: COc1ccc(O)c(C=O)c1
- absorption maximum (in CO): 359 nm
- absorption maximum (in ClC(Cl)Cl): 364 nm

Compound: Cc1cc2nc3c(=O)n(C)c(=O)nc-3n(C)c2cc1C
- absorption maximum (in CC#N): 444 nm

Compound: Cc1cc(-c2nnc(-c3c(C(C)C)cc(C(C)C)cc3C(C)C)o2)ccc1-n1c2ccccc2c2ccccc21
- absorption maximum (in Cc1ccccc1): 339 nm

Compound: CC(C)(C)NC(=O)c1c([Si](C)(C)C)cc2ccc3cccc4ccc1c2c34
- absorption maximum (in ClC(Cl)Cl): 382 nm

Compound: c1ccc(-c2ccccc2)cc1
- absorption maximum (in C1CCCCC1): 254.13 nm
- absorption maximum (in C1COCCO1): 246 nm

Compound: Cc1ccc(O)cc1
- absorption maximum (in O): 276 nm

Compound: COc1ccc(-n2nc(C#N)c(N3CCCC3)n2)cc1OC
- absorption maximum (in CC#N): 344 nm

Compound: COC(=O)c1[nH]c(-c2ccc([N+](=O)[O-])cc2)c2nnc3ccc(OC)cc3c12
- absorption maximum (in ClCCl): 436 nm

Compound: Cc1cccc(C)c1Nc1ccc(/C=C/c2cccnc2)cc1
- absorption maximum (in CC#N): 351 nm
- absorption maximum (in CCCCCC): 346 nm

Compound: COc1c2ccccc2c(OC)c2c1c1ccccc1n2C
- absorption maximum (in C1CCCCC1): 405 nm
- absorption maximum (in CC#N): 406 nm
- absorption maximum (in CO): 405 nm
- absorption maximum (in ClCCl): 409 nm

Compound: C(=C\c1cc(/C=C/c2ccc(N(c3ccccc3)c3ccccc3)cc2)nc(/C=C/c2ccc(N(c3ccccc3)c3ccccc3)cc2)n1)/c1ccc(N(c2ccccc2)c2ccccc2)cc1
- absorption maximum (in ClCCl): 415 nm

Compound: COc1ccc(C2=C3C(C)=CC(C=Cc4ccc(C(=O)OC5C[C@H]6CCC5(C)C6(C)C)cc4)=[N+]3[B-](F)(F)n3c(C)cc(C)c32)cc1 (stereo not given in full)
- absorption maximum (in Cc1ccccc1): 568 nm

Compound: CN(C)c1ccc(C2=Nc3scc[n+]3[B-](F)(F)O2)cc1
- absorption maximum (in C1CCOC1): 402 nm
- absorption maximum (in CC#N): 402 nm
- absorption maximum (in Cc1ccccc1): 405 nm
- absorption maximum (in ClCCl): 407 nm

Compound: N#Cc1c(-n2c3ccc(I)cc3c3cc(I)ccc32)c(C#N)c(-n2c3ccc(I)cc3c3cc(I)ccc32)c(-n2c3ccc(I)cc3c3cc(I)ccc32)c1-n1c2ccc(I)cc2c2cc(I)ccc21
- absorption maximum (in Cc1ccccc1): 384 nm

Compound: CCN(CC)c1ccc2c(c1)oc(=O)c1c(-c3ccccc3C(=O)O)c3ccc(=[N+](CC)CC)cc-3oc12
- absorption maximum (in CCO): 591 nm
- absorption maximum (in ClC(Cl)Cl): 602 nm
- absorption maximum (in O): 594 nm

Compound: CCCCC(CC)CN1C(=O)c2cccc3c(C#Cc4ccc(N(c5ccc(C#Cc6ccc7c8c(cccc68)C(=O)N(CC(CC)CCCC)C7=O)cc5)c5ccc(C#Cc6ccc7c8c(cccc68)C(=O)N(CC(CC)CCCC)C7=O)cc5)cc4)ccc(c23)C1=O (stereo not given)
- absorption maximum (in C1CCCCC1): 444 nm
- absorption maximum (in C1CCOC1): 447 nm
- absorption maximum (in CC#N): 454 nm
- absorption maximum (in Cc1ccccc1): 446 nm
- absorption maximum (in ClC(Cl)Cl): 453 nm

Compound: c1ccc2c3c(ccc2c1)-c1c2ccccc2cc2cccc-3c12
- absorption maximum (in CCCCCCC): 449 nm

Compound: Cc1cc(N2c3ccccc3C3(c4ccccc4-c4ccccc43)c3ccccc32)c(C)cc1-c1nc(-c2ccccc2)nc(-c2ccccc2)n1
- absorption maximum (in Cc1ccccc1): 382.89 nm

Compound: C#CCN1C(=O)/C(=C/c2cc(OC(C)C)ccc2OC(C)C)N=C1C
- absorption maximum (in C1COCCO1): 396 nm
- absorption maximum (in CC#N): 395 nm
- absorption maximum (in CC(C)=O): 394 nm
- absorption maximum (in CCCCCC): 392 nm
- absorption maximum (in CCCCO): 400 nm
- absorption maximum (in CCCO): 400 nm
- absorption maximum (in CCO): 399 nm
- absorption maximum (in CCOC(C)=O): 393 nm
- absorption maximum (in CN(C)C=O): 399 nm
- absorption maximum (in CO): 398 nm
- absorption maximum (in CS(C)=O): 401 nm

Compound: c1ccc(-n2c3ccccc3c3cc(-n4ccc5cc(-c6cccc7c6-c6ccccc6C7(c6ccccc6)c6ccccc6)ccc54)ccc32)cc1
- absorption maximum (in ClCCl): 325 nm

Compound: CCOC(=O)C1=CN(c2ccccc2)C=CC1c1ccccc1 (stereo not given)
- absorption maximum (in C1CCOC1): 344 nm
- absorption maximum (in CO): 348 nm

Compound: c1cc2cc(c1)c1ccc3ccc4ccc(cc4c3c1)c1ccc3ccc4ccc(cc4c3c1)c1cccc2c1
- absorption maximum (in Cc1ccccc1): 355 nm

Compound: CC1(C)c2ccccc2N(c2ccc(-c3nnc(-c4ccc(N5c6ccccc6C(C)(C)c6ccccc65)cc4)o3)cc2)c2ccccc21
- absorption maximum (in Cc1ccccc1): 360 nm

Compound: CCCCn1c(-c2ccc(-c3ccc(-c4ccc(-c5n(CCCC)c6ccccc6[n+]5CCCC)cc4)cc3)cc2)[n+](CCCC)c2ccccc21
- absorption maximum (in O): 303 nm

Compound: COc1ccccc1C1=C2C(C)=CC(C)=[N+]2[B-](F)(F)n2c(C)cc(C)c21
- absorption maximum (in C1CCOC1): 503 nm
- absorption maximum (in CC#N): 499 nm
- absorption maximum (in CC(=O)C(C)(C)C): 502 nm
- absorption maximum (in CC(C)=O): 501 nm
- absorption maximum (in CCCCCC): 504 nm
- absorption maximum (in CCOC(C)=O): 502 nm
- absorption maximum (in CO): 500 nm

Compound: O=Cc1ccc(-c2ccc(C3=CCC(c4ccccc4)CC3)s2)s1 (stereo not given)
- absorption maximum (in C1CCOC1): 385 nm
- absorption maximum (in CC#N): 385 nm
- absorption maximum (in CCCCCC): 380 nm
- absorption maximum (in CCO): 389 nm
- absorption maximum (in OCCOCCO): 389 nm
- absorption maximum (in c1ccncc1): 393 nm

Compound: CC1(C)C(/C=C/C2=C(Cl)C(=C/C=C3/N(Cc4ccccc4)c4ccccc4C3(C)C)/CCC2)=[N+](Cc2ccccc2)c2ccccc21
- absorption maximum (in CO): 784 nm

Compound: Brc1ccc(/C=C/c2cnc3ccccc3n2)cc1
- absorption maximum (in ClCCl): 369 nm

Compound: CCC1(CC)c2ccccc2-c2c1c1c(c3c2C(CC)(CC)c2cc(-c4cccs4)ccc2-3)C(CC)(CC)c2cc(N(c3ccccc3)c3ccccc3)ccc2-1
- absorption maximum (in C1CCOC1): 355 nm

Compound: CC[n+]1nc2cc3c4c(c2c2ccccc21)CCCN4CCC3
- absorption maximum (in O): 493 nm

Compound: Cc1ccc(O)c(-c2nc(C)c3n2CCCC3)c1
- absorption maximum (in ClCCl): 321 nm

Compound: COc1ccc2c(=O)c3c([nH]c2c1)-c1cc(Cl)ccc1NC3(C)C
- absorption maximum (in C1CCOC1): 411 nm
- absorption maximum (in CC#N): 421 nm
- absorption maximum (in CCCCO): 426 nm
- absorption maximum (in CCCO): 426 nm
- absorption maximum (in CCO): 426 nm
- absorption maximum (in CCOC(C)=O): 417 nm
- absorption maximum (in CN(C)C=O): 425 nm
- absorption maximum (in CO): 428 nm
- absorption maximum (in CS(C)=O): 426 nm
- absorption maximum (in Cc1ccccc1): 405 nm
- absorption maximum (in ClC(Cl)(Cl)Cl): 419 nm
- absorption maximum (in ClCCl): 408 nm
- absorption maximum (in O): 405 nm
- absorption maximum (in c1ccccc1): 420 nm

Compound: CCCCN1C(=S)c2cccc3c(N(C)C)ccc(c23)C1=S
- absorption maximum (in CC#N): 571 nm
- absorption maximum (in CS(C)=O): 588 nm
- absorption maximum (in Cc1ccccc1): 536 nm

Compound: CN(C)c1ccc(/C=C/c2nc3c4ccccc4c4ccccc4c3[nH]2)cc1
- absorption maximum (in C1CCOC1): 390 nm
- absorption maximum (in C1COCCO1): 389 nm
- absorption maximum (in CC1CCCCC1): 386 nm
- absorption maximum (in CC#N): 389 nm
- absorption maximum (in CCOC(C)=O): 387 nm
- absorption maximum (in CCOCC): 386 nm
- absorption maximum (in CN(C)C=O): 392 nm
- absorption maximum (in COC(C)=O): 389 nm
- absorption maximum (in CS(C)=O): 396 nm
- absorption maximum (in Cc1ccccc1): 393 nm
- absorption maximum (in ClC(Cl)Cl): 393 nm

Compound: Clc1ccc(-c2nc(-c3ccccc3)sc2N(c2ccccc2)c2ccccc2)cc1
- absorption maximum (in ClC(Cl)Cl): 366 nm

Compound: COc1cccc(OC)c1-c1c2ccc(=[N+]3CCNCC3)cc-2oc2cc(N3CCNCC3)ccc12
- absorption maximum (in CCO): 561 nm
- absorption maximum (in O): 542 nm

Compound: CSc1sc(C(N)=O)c2nnn(C)c(=O)c12
- absorption maximum (in C1CCOC1): 393 nm
- absorption maximum (in CC#N): 394.5 nm
- absorption maximum (in CCO): 397 nm
- absorption maximum (in CN(C)C=O): 396.5 nm
- absorption maximum (in CO): 397 nm
- absorption maximum (in CS(C)=O): 398.5 nm

Compound: Oc1ccc(-c2nc(-c3ccccc3)c(-c3ccccc3)[nH]2)cc1
- absorption maximum (in CO): 295 nm
